Data on 16 compounds can be found in patent publication US20230002375A1, “HYDROPYRAZINO[1,2-B]ISOQUINOLINE COMPOUNDS FOR THE TREATMENT OF AUTOIMMUNE DISEASE” (Hoffmann-La Roche Inc., priority 2019, published 2023).

One data set has as its target T1, human TLR8 (Homo sapiens, UniProt Q9NR97).
T1 sequence (Q9NR97 27-1041): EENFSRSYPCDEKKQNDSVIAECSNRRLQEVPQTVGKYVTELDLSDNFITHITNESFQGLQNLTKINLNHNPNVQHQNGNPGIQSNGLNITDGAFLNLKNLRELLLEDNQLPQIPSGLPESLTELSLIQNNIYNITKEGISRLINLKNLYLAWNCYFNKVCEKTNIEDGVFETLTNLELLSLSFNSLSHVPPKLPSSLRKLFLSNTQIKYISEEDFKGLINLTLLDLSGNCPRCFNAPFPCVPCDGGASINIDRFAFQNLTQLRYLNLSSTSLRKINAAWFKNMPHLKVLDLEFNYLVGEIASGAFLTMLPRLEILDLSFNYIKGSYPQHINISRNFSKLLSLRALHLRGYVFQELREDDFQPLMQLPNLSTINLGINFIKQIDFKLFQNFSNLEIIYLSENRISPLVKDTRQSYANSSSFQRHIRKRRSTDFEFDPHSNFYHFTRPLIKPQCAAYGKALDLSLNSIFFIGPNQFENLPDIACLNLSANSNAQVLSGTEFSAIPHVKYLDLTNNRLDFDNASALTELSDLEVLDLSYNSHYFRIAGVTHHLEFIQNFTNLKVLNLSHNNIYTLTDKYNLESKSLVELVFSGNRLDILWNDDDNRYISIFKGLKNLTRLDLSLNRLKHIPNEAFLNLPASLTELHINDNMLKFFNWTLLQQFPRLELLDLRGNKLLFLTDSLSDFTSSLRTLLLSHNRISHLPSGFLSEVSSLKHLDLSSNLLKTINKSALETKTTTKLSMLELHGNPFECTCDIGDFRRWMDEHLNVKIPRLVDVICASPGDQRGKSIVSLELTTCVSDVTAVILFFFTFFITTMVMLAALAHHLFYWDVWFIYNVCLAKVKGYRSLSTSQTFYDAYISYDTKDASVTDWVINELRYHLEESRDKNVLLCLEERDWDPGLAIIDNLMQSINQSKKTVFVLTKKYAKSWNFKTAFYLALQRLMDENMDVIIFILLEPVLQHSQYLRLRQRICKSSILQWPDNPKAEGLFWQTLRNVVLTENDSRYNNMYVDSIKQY
Put plainly: HEK293-Blue-hTLR-8 cells assay (SEAP reporter, R848 stimulation). It counts as cell-based. Conditions: HEK293-Blue-hTLR8 cells, R848, 20 hrs incubation; read-out: HEK/hTLR8 IC50. On the procedure: The following tests were carried out in order to determine the activity of the compounds of formula (I), (Ia) or (Ib) in HEK293-Blue-hTLR-7/8/9 cells assay.
HEK293-Blue-hTLR-8 Cells Assay:
A stable HEK293-Blue-hTLR-8 cell line was purchased from InvivoGen (Cat.#: hkb-htlr8, San Diego, Calif., USA). These cells were originally designed for studying the stimulation of human TLR8 by monitoring the activation of NF-κB. A SEAP (secreted embryonic alkaline phosphatase) reporter gene was placed under the control of the IFN-β minimal promoter fused to five NF-κB and AP-1-binding sites. The SEAP was induced by activating NF-κB and AP-1 via stimulating HEK-Blue hTLR8 cells with TLR8 ligands. Therefore the reporter expression was declined by TLR8 antagonist under the stimulation of a ligand, such as R848, for incubation of 20 hrs. The cell culture supernatant SEAP reporter activity was determined using QUANTI-Blue™ kit (Cat.#: rep-qb1, Invivogen, San Diego, Ca, USA) at a wavelength of 640 nm, a detection medium that turns purple or blue in the presence of alkaline phosphatase.
HEK293-Blue-hTLR8 cells were incubated at a density of 250,000-450,000 cells/mL in a volume of 170 μL in a 96-well plate in Dulbecco's Modified Eagle's medium (DMEM) containing 4.5 g/L glucose, 50 U/mL penicillin, […], […], 2 mM L-glutamine, 10% (v/v) heat-inactivated fetal bovine serum with addition of 20 μL test compound in a serial dilution in the presence of final DMSO at 1% and 10 μL of 60 uM R848 in above DMEM, perform incubation under 37° C. in a CO2 incubator for 20 hrs. Then 20 μL of the supernatant from each well was incubated with 180 μL Quanti-blue substrate solution at 37° C. for 2 hrs and the absorbance was read at 620˜655 nm using a spectrophotometer. The signaling pathway that TLR8 activation leads to downstream NF-κB activation has been widely accepted, and therefore similar reporter assay was modified for evaluating TLR8 antagonist.

The nature of data set [1]: Human microsomal stability assay. It counts as in vitro ADME. To be noted: human liver microsomes, 1 μM test compound, 0.5 mg/mL protein, 37° C.; low <7.0, medium 7.0-16.2, high 16.2-23.2 mL/min/kg. On the procedure: Human Microsomal Stability Assay
Human liver microsomes (Cat.NO.: 452117, Corning, USA) were preincubated with test compound for 10 minutes at 37° C. in 100 mM potassium phosphate buffer, pH 7.4. The reactions were initiated by adding NADPH regenerating system. The final incubation mixtures contained 1 μM test compound, 0.5 mg/mL liver microsomal protein, 1 mM MgCl2, 1 mM NADP, 1 unit/mL isocitric dehydrogenase and 6 mM isocitric acid in 100 mM potassium phosphate buffer, pH 7.4. After incubation times of 0, 3, 6, 9, 15 and 30 minutes at 37° C., 300 μL of cold ACN (including internal standard) was added to 100 μL incubation mixture to terminate the reaction. Following precipitation and centrifugation, 100 uL supernatant will be taken out and added 300 uL water. The amount of compound remaining in the samples was determined by LC-MS/MS. Controls of no NADPH regenerating system at zero and 30 minutes were also prepared and analyzed. The results were categorized as: low (<7.0 mL/min/kg), medium (7.0-16.2 mL/min/kg) and high (16.2-23.2 mL/min/kg).
On the technique in general: Liver microsomes are a subcellular fraction often used to study metabolism.

In the case of `C[C@@H]1CN(c2ccc(C#N)c3ncccc23)C[C@@H]2Cc3cc(N4C[C@@H]5CNCCN5C4=O)ccc3CN21` (single isomer, unassigned) [Example 17A], at human TLR8, the IC50 amounted to 0.008 µM.

For the compound `C[C@@H]1CN(c2ccc(C#N)c3ncccc23)C[C@@H]2Cc3cc(N4C[C@H]5CNCCN5C4=O)ccc3CN21` (single isomer, unassigned) [Example 17B], at human TLR8, the IC50 came out at 0.0024 µM. With `C[C@@H]1CN(c2ccc(C#N)c3ncccc23)C[C@@H]2Cc3cc(N4CC5NCCOC5C4)ccc3CN21` (stereo in doubt) [Example 10, 5-[(4R,11aS)-9-[(4aS,7aS)-3,4,4a,5,7,7a-hexahydro-2H-pyrrolo[3,4-b][1,4]oxazin-6-yl]-4-methyl-1,3,4,6,11,11a-hexahydropyrazino[1,2-b]isoquinolin-2-yl]quinoline-8-carbonitrile], the IC50 at human TLR8 was 0.0015 µM. For the same compound, the “CL(h)” value in data set [1] worked out at 9.3 mL/min/kg.

With `C[C@@H]1CN(c2ccc(C#N)c3ncccc23)C[C@@H]2Cc3ccc(N4CCOCC(N)C4)cc3CN21` (stereo partly drawn) [Example 1, 5-[(4R,11aS)-8-(6-amino-1,4-oxazepan-4-yl)-4-methyl-1,3,4,6,11,11a-hexahydropyrazino[1,2-b]isoquinolin-2-yl]quinoline-8-carbonitrile], the IC50 at human TLR8 was determined as 0.0145 µM. As for `C[C@@H]1CN(c2ccc(C#N)c3ncccc23)C[C@@H]2Cc3ccc(NCCN4CC[C@H](O)C4)cc3CN21` [Example 2, 5-[(4R,11aS)-8-[2-[(3S)-3-hydroxypyrrolidin-1-yl]ethylamino]-4-methyl-1,3,4,6,11,11a-hexahydropyrazino[1,2-b]isoquinolin-2-yl]quinoline-8-carbonitrile], the IC50 on human TLR8 came out at 0.0042 µM.

In the case of `C[C@@H]1CN(c2ccc(C#N)c3ncccc23)C[C@@H]2Cc3ccc(OCCN(C)C)cc3CN21` [Example 5, 5-[(4R,11aS)-8-[2-(dimethylamino)ethoxy]-4-methyl-1,3,4,6,11,11a-hexahydropyrazino[1,2-b]isoquinolin-2-yl]quinoline-8-carbonitrile], on human TLR8, the IC50 is 0.0092 µM. In the case of `C[C@@H]1CN(c2ccc(C#N)c3ncccc23)C[C@@H]2Cc3cc(N[C@@H]4CNC[C@@H]4F)ccc3CN21` [Example 6, 5-[(4R,11aS)-4-methyl-9-[[(3R,4S)-4-fluoropyrrolidin-3-yl]amino]-1,3,4,6,11,11a-hexahydropyrazino[1,2-b]isoquinolin-2-yl]quinoline-8-carbonitrile], the IC50 on human TLR8 came out at 0.0261 µM. In data set [1], the “CL(h)” value is reported as 6.8 mL/min/kg. As to `CO[C@H]1CNC[C@H]1Nc1ccc2c(c1)C[C@H]1CN(c3ccc(C#N)c4ncccc34)C[C@@H](C)N1C2` [Example 7, 5-[(4R,11aS)-9-[[(3R,4S)-4-methoxypyrrolidin-3-yl]amino]-4-methyl-1,3,4,6,11,11a-hexahydropyrazino[1,2-b]isoquinolin-2-yl]quinoline-8-carbonitrile], at human TLR8, the IC50 came to 0.0135 µM.

For `C[C@@H]1CN(c2ccc(C#N)c3ncccc23)C[C@@H]2Cc3cc(N4C[C@@H](F)[C@@H](N)C4)ccc3CN21` [Example 8, 5-[(4R,11aS)-9-[(3S,4R)-3-amino-4-fluoro-pyrrolidin-1-yl]-4-methyl-1,3,4,6,11,11a-hexahydropyrazino[1,2-b]isoquinolin-2-yl]quinoline-8-carbonitrile], on human TLR8, the IC50 was determined as 0.0215 µM. For the same compound, in data set [1], the “CL(h)” value is on record as 9.6 mL/min/kg. For `CO[C@H]1CN(c2ccc3c(c2)C[C@H]2CN(c4ccc(C#N)c5ncccc45)C[C@@H](C)N2C3)C[C@H]1N` [Example 9, 5-[(4R,11aS)-9-[(3R,4S)-3-amino-4-methoxy-pyrrolidin-1-yl]-4-methyl-1,3,4,6,11,11a-hexahydropyrazino[1,2-b]isoquinolin-2-yl]quinoline-8-carbonitrile] the same measures were 0.0023 µM and 8.8 mL/min/kg. For the compound `C[C@@H]1CN(c2ccc(C#N)c3ncccc23)C[C@@H]2Cc3cc(OCCN(C)C)ccc3CN21` [Example 11, 5-[(4R,11aS)-9-[2-(dimethylamino)ethoxy]-4-methyl-1,3,4,6,11,11a-hexahydropyrazino[1,2-b]isoquinolin-2-yl]quinoline-8-carbonitrile], the IC50 at human TLR8 is 0.0111 µM. On the same count and under the same terms, as for `C[C@@H]1CN(c2ccc(C#N)c3ncccc23)C[C@@H]2Cc3cc(OC[C@@H]4CCN4)ccc3CN21` [Example 12, 5-[(4R,11aS)-9-[[(2S)-azetidin-2-yl]methoxy]-4-methyl-1,3,4,6,11,11a-hexahydropyrazino[1,2-b]isoquinolin-2-yl]quinoline-8-carbonitrile], the figure is 0.0229 µM. Consider `C[C@@H]1CN(c2ccc(C#N)c3ncccc23)C[C@@H]2Cc3cc(N4CCN(C(=O)C(C)(C)N)CC4)ccc3CN21` [Example 13, 5-[(4R,11aS)-9-[4-(2-amino-2-methyl-propanoyl)piperazin-1-yl]-4-methyl-1,3,4,6,11,11a-hexahydropyrazino[1,2-b]isoquinolin-2-yl]quinoline-8-carbonitrile], for which the IC50 at human TLR8 is 0.0375 µM. For the same compound, the “CL(h)” value in data set [1] was found to be 7.6 mL/min/kg. As for `C[C@@H]1CN(c2ccc(C#N)c3ncccc23)C[C@@H]2Cc3cc(N4C[C@@H]5C[C@H]4CN5C(=O)C(C)(C)N)ccc3CN21` [Example 15, 5-[(4R,11aS)-9-[(1S,4S)-5-(2-amino-2-methyl-propanoyl)-2,5-diazabicyclo[2.2.1]heptan-2-yl]-4-methyl-1,3,4,6,11,11a-hexahydropyrazino[1,2-b]isoquinolin-2-yl]quinoline-8-carbonitrile], the IC50 at human TLR8 worked out at 0.0047 µM. The same measure, in the same setting: for `C[C@@H]1CN(c2ccc(C#N)c3ncccc23)C[C@@H]2Cc3cc(N4CC5CCNCC5C4=O)ccc3CN21` (stereo partly drawn) [Example 18, 5-[(4R,11aS)-4-methyl-9-(3-oxo-3a,4,5,6,7,7a-hexahydro-1H-pyrrolo[3,4-c]pyridin-2-yl)-1,3,4,6,11,11a-hexahydropyrazino[1,2-b]isoquinolin-2-yl]quinoline-8-carbonitrile] the value was 0.0145 µM. Still for that read-out and setting: for `C[C@@H]1CN(c2ccc(C#N)c3ncccc23)C[C@@H]2Cc3cc(N4CC5CNCCC5C4=O)ccc3CN21` (stereo partly drawn) [Example 19, 5-[(4R,11aS)-4-methyl-9-(1-oxo-3a,4,5,6,7,7a-hexahydro-3H-pyrrolo[3,4-c]pyridin-2-yl)-1,3,4,6,11,11a-hexahydropyrazino[1,2-b]isoquinolin-2-yl]quinoline-8-carbonitrile] the value was 0.0042 µM.
